This is an account of results in US11413241B2, “Method for preparing a composition with a low dissolved oxygen content, comprising acetaminophen, and optionally one or more NSAIDs, and a composition obtained thereof” (Hyloris Developments SA, priority 2017, dated 2022).

Series [1] is described as follows: Dissolution/precipitation of sodium ibuprofen 2H2O alone in water at decreasing pH. It is filed as physicochemical.
Series [2] in a line: Amount of acetaminophen at various points in time and different pH. In kind it is physicochemical. Conditions: pH range 6.3-7.3, various points in time. The text has this:
The amount of acetaminophen was studied at varies points in time and for different pH's.

For series [3] the following is noted: from literature; cited from earlier work.
A short description of series [4]: Dissolution of sodium ibuprofen 2H2O in the acetaminophen-ibuprofen formulation at varying pH. In kind it is physicochemical.

For `CC(C)Cc1ccc(C(C)C(=O)O)cc1` (stereo not shown) [ibuprofen], the “pH at which precipitation is observed” value in series [1] (3.85 mg/ml sodium ibuprofen 2H2O in water, pH gradually decreased) was determined as 5.75. The precipitation result in series [1] (pH 6, stored 1 month at 25° C.) is “showed precipitation”; in series [1] (pH 6.2, stored 1 month at 25° C.), “precipitation was absent”.
Consider `CC(=O)Nc1ccc(O)cc1` [acetaminophen, N-(4-hydroxyphenyl)acetamide], for which the degradation of acetaminophen entry in series [2] is given as “minimal degradation”. Further, in series [3], the “pH at which rate of degradation is minimal” value was about 6.
`CC(C)Cc1ccc(C(C)C(=O)O)cc1` (stereo not shown) [sodium ibuprofen 2H2O] yielded a pH of composition in series [1] (3.85 mg/ml in water, before pH decrease) of 8.80. The Dissolved result is given as “No” in series [1] (alone in water, pH 3); “No” in series [1] (alone in water, pH 4); “No” in series [1] (alone in water, pH 5); “No” in series [1] (alone in water, pH 5.5); “Yes” in series [1] (alone in water, pH 5.8); “Yes” in series [1] (alone in water, pH 6). The Dissolved entry is on record as “Yes” in series [1] (alone in water, pH 6.2); “Yes” in series [1] (alone in water, pH 6.4); “Yes” in series [1] (alone in water, pH 6.6); “Yes” in series [1] (alone in water, pH 6.8); “Yes” in series [1] (alone in water, pH 7); “Yes” in series [1] (alone in water, pH 7.5). For the same molecule, the Dissolved result in series [1] (in water after 1 month storage at 25° C., pH 5.8) is listed as “No”; in series [1] (in water after 1 month storage at 25° C., pH 6), “No”; in series [1] (in water after 1 month storage at 25° C., pH 6.2), “Yes”; in series [1] (in water after 1 month storage at 25° C., pH 6.4) it was “Yes”; in series [1] (in water after 1 month storage at 25° C., pH 6.6), “Yes”; in series [1] (in water after 1 month storage at 25° C., pH 6.8), “Yes”. Further, the Dissolved entry in series [1] (in water after 1 month storage at 25° C., pH 7) is “Yes”; in series [1] (in water after 1 month storage at 25° C., pH 7.5), “Yes”; in series [4] (in the formulation 3 mg/ml Acetaminophen 10 mg/ml Ibuprofen, pH 6.2) it was “Yes”; in series [4] (in the formulation 3 mg/ml Acetaminophen 10 mg/ml Ibuprofen, pH 6.3) it was “Yes”; in series [4] (in the formulation 3 mg/ml Acetaminophen 10 mg/ml Ibuprofen, pH 6.4), “Yes”; in series [4] (in the formulation 3 mg/ml Acetaminophen 10 mg/ml Ibuprofen, pH 6.6), “Yes”. The Dissolved result is “Yes” in series [4] (in the formulation 3 mg/ml Acetaminophen 10 mg/ml Ibuprofen, pH 7); “No” in series [4] (in the formulation Acetaminophen - Ibuprofen, 1 month, pH 6.2); “Yes” in series [4] (in the formulation Acetaminophen - Ibuprofen, 1 month, pH 6.3); “Yes” in series [4] (in the formulation Acetaminophen - Ibuprofen, 1 month, pH 6.4); “Yes” in series [4] (in the formulation Acetaminophen - Ibuprofen, 1 month, pH 6.6); “Yes” in series [4] (in the formulation Acetaminophen - Ibuprofen, 1 month, pH 7). Further, the Dissolved result in series [4] (in the formulation Acetaminophen - Ibuprofen, 6 months, 25° C., pH 6.3) is reported as “Yes”; in series [4] (in the formulation Acetaminophen - Ibuprofen, 6 months, 25° C., pH 6.4), “Yes”; in series [4] (in the formulation Acetaminophen - Ibuprofen, 6 months, 25° C., pH 6.6), “Yes”; in series [4] (in the formulation Acetaminophen - Ibuprofen, 6 months, 25° C., pH 7) it was “Yes”.
